Experiment [1] concerns the target Corticotropin-releasing factor receptor 2 (Mus musculus, UniProt Q60748). Put plainly: In vitro effective concentration for mouse corticotropin releasing factor 2 receptor.
For experiment [2], the target named is T1, Corticotropin-releasing factor receptor 1 (Mus musculus, UniProt P35347).
T1 sequence (P35347 whole entry): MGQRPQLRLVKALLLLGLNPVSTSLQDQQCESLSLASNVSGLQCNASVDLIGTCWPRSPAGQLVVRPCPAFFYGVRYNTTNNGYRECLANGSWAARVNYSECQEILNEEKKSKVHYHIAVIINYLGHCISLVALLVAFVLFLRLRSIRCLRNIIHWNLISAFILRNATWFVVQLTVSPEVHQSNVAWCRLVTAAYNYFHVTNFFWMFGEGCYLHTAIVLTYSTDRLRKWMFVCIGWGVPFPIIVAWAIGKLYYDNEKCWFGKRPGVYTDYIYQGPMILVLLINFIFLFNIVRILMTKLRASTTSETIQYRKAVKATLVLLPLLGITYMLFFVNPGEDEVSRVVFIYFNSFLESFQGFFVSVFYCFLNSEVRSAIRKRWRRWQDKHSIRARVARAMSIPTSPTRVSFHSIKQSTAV
As to the kind of experiment: In vitro effective concentration for mouse corticotropin releasing factor 1 receptor.

Square brackets hold non-standard residues; d marks the D form. Peptide text beside a SMILES is read from it. 1Nal = N[C@@H](Cc1cccc2ccccc12)C(=O)O; pGlu = O=C1CC[C@@H](C(=O)O)N1

Corticotropin-releasing factor receptor 2, sequence (Q60748 whole entry): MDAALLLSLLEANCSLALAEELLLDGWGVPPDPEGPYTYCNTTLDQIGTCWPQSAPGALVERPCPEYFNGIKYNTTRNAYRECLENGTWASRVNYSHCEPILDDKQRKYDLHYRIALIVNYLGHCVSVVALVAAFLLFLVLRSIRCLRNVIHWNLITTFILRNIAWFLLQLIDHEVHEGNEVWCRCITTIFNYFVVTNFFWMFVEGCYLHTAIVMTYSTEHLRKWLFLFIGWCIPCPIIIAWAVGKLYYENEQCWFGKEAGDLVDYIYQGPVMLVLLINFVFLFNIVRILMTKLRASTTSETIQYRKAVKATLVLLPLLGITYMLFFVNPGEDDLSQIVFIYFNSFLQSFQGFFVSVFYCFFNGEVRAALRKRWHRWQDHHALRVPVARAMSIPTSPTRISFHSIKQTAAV

Consider `CC[C@H](C)[C@H](NC(=O)[C@@H](NC(=O)[C@H](CC(=O)O)NC(=O)[C@H](CC(C)C)NC(=O)[C@H](CC(C)C)NC(=O)[C@H](CC(C)C)NC(=O)[C@H](CCCNC(=N)N)NC(=O)[C@H](CC(N)=O)NC(=O)[C@H](CC(N)=O)NC(=O)[C@H](C)NC(=O)[C@H](C)NC(=O)[C@H](CCC(N)=O)NC(=O)[C@H](CCC(N)=O)NC(=O)[C@H](CCCCN)NC(=O)[C@H](CCC(=O)O)NC(=O)[C@H](CCCCN)NC(=O)[C@H](CCC(=O)O)NC(=O)[C@H](CCC(N)=O)NC(=O)[C@H](CCCCN)NC(=O)[C@H](CCC(=O)O)NC(=O)[C@@H](NC(=O)[C@H](CCC(=O)O)NC(=O)[C@@H](NC(=O)[C@H](CCSC)NC(=O)[C@H](CCCCN)NC(=O)[C@H](CCCNC(=N)N)NC(=O)[C@H](CC(C)C)NC(=O)[C@H](CC(C)C)NC(=O)[C@H](Cc1cccc2ccccc12)NC(=O)[C@H](CCC(N)=O)NC(=O)[C@@H]1CCCN1C(=O)[C@H](CC(C)C)NC(=O)[C@H](CC(=O)O)NC(=O)[C@@H](NC(=O)[C@H](CO)NC(=O)[C@@H](NC(=O)[C@@H]1CCCN1C(=O)[C@@H]1CCCN1C(=O)CNC(=O)[C@@H]1CCC(=O)N1)[C@@H](C)CC)[C@@H](C)CC)[C@@H](C)CC)[C@@H](C)CC)[C@@H](C)O)C(=O)O` ([pGlu]GPPISIDLPQ[1Nal]LLRKMIEIEKQEKEKQQAANNRLLLDTI-OH), for which the EC50 worked out at 0.0141 µM in experiment [1] and 0.367 µM in experiment [2].
Take `CC[C@H](C)[C@H](NC(=O)[C@@H](NC(=O)[C@H](CC(=O)O)NC(=O)[C@H](CC(C)C)NC(=O)[C@H](CC(C)C)NC(=O)[C@H](CC(C)C)NC(=O)[C@H](CCCNC(=N)N)NC(=O)[C@H](CC(N)=O)NC(=O)[C@H](CC(N)=O)NC(=O)[C@H](C)NC(=O)[C@H](C)NC(=O)[C@H](CCC(N)=O)NC(=O)[C@H](CCC(N)=O)NC(=O)[C@H](CCCCN)NC(=O)[C@H](CCC(=O)O)NC(=O)[C@H](CCCCN)NC(=O)[C@H](CCC(=O)O)NC(=O)[C@H](CCC(N)=O)NC(=O)[C@H](CCCCN)NC(=O)[C@H](CCC(=O)O)NC(=O)[C@@H](NC(=O)[C@H](CCC(=O)O)NC(=O)[C@@H](NC(=O)[C@H](CCSC)NC(=O)[C@H](CCCCN)NC(=O)[C@H](CCCNC(=N)N)NC(=O)[C@H](CC(C)C)NC(=O)[C@H](CC(C)C)NC(=O)[C@H](CCC(=O)O)NC(=O)[C@H](CC(C)C)NC(=O)[C@@H]1CCCN1C(=O)[C@H](CC(C)C)NC(=O)[C@H](CC(=O)O)NC(=O)[C@@H](NC(=O)[C@H](CO)NC(=O)[C@@H](NC(=O)[C@@H]1CCCN1C(=O)[C@@H]1CCCN1C(=O)CNC(=O)[C@@H]1CCC(=O)N1)[C@@H](C)CC)[C@@H](C)CC)[C@@H](C)CC)[C@@H](C)CC)[C@@H](C)O)C(=O)O`: the 50% effective concentration (EC50) in experiment [1] was determined as 0.0109 µM; in experiment [2], 0.096 µM.
In the same order, the values of `CC[C@H](C)[C@H](NC(=O)[C@@H](NC(=O)[C@H](CC(=O)O)NC(=O)[C@H](CC(C)C)NC(=O)[C@H](CC(C)C)NC(=O)[C@H](CC(C)C)NC(=O)[C@H](CCCNC(=N)N)NC(=O)[C@H](CC(N)=O)NC(=O)[C@H](CC(N)=O)NC(=O)[C@H](C)NC(=O)[C@H](C)NC(=O)[C@H](CCC(N)=O)NC(=O)[C@H](CCC(N)=O)NC(=O)[C@H](CCCCN)NC(=O)[C@H](CCC(=O)O)NC(=O)[C@H](CCCCN)NC(=O)[C@H](CCC(=O)O)NC(=O)[C@H](CCC(N)=O)NC(=O)[C@H](CCCCN)NC(=O)[C@H](CCC(=O)O)NC(=O)[C@@H](NC(=O)[C@H](CCC(=O)O)NC(=O)[C@@H](NC(=O)[C@H](CCSC)NC(=O)[C@H](CCCCN)NC(=O)[C@H](CCCNC(=N)N)NC(=O)[C@H](CC(C)C)NC(=O)[C@H](CC(C)C)NC(=O)CNC(=O)[C@H](CC(C)C)NC(=O)[C@@H]1CCCN1C(=O)[C@H](CC(C)C)NC(=O)[C@H](CC(=O)O)NC(=O)[C@@H](NC(=O)[C@H](CO)NC(=O)[C@@H](NC(=O)[C@@H]1CCCN1C(=O)[C@@H]1CCCN1C(=O)CNC(=O)[C@@H]1CCC(=O)N1)[C@@H](C)CC)[C@@H](C)CC)[C@@H](C)CC)[C@@H](C)CC)[C@@H](C)O)C(=O)O` ([pGlu]GPPISIDLPLGLLRKMIEIEKQEKEKQQAANNRLLLDTI-OH) are 0.0216 µM and 0.312 µM.
Consider `CC[C@H](C)[C@H](NC(=O)[C@@H](NC(=O)[C@H](CC(=O)O)NC(=O)[C@H](CC(C)C)NC(=O)[C@H](CC(C)C)NC(=O)[C@H](CC(C)C)NC(=O)[C@H](CCCNC(=N)N)NC(=O)[C@H](CC(N)=O)NC(=O)[C@H](CC(N)=O)NC(=O)[C@H](C)NC(=O)[C@H](C)NC(=O)[C@H](CCC(N)=O)NC(=O)[C@H](CCC(N)=O)NC(=O)[C@H](CCCCN)NC(=O)[C@H](CCC(=O)O)NC(=O)[C@H](CCCCN)NC(=O)[C@H](CCC(=O)O)NC(=O)[C@H](CCC(N)=O)NC(=O)[C@H](CCCCN)NC(=O)[C@H](CCC(=O)O)NC(=O)[C@@H](NC(=O)[C@H](CCC(=O)O)NC(=O)[C@@H](NC(=O)[C@H](CCSC)NC(=O)[C@H](CCCCN)NC(=O)[C@H](CCCNC(=N)N)NC(=O)[C@H](CC(C)C)NC(=O)[C@H](CC(C)C)NC(=O)[C@H](Cc1ccc(O)cc1)NC(=O)[C@H](CC(C)C)NC(=O)[C@@H]1CCCN1C(=O)[C@H](CC(C)C)NC(=O)[C@H](CC(=O)O)NC(=O)[C@@H](NC(=O)[C@H](CO)NC(=O)[C@@H](NC(=O)[C@@H]1CCCN1C(=O)[C@@H]1CCCN1C(=O)CNC(=O)[C@@H]1CCC(=O)N1)[C@@H](C)CC)[C@@H](C)CC)[C@@H](C)CC)[C@@H](C)CC)[C@@H](C)O)C(=O)O` ([pGlu]GPPISIDLPLYLLRKMIEIEKQEKEKQQAANNRLLLDTI-OH), for which the EC50 is 0.0043 µM in experiment [1] and 0.0679 µM in experiment [2].
In the same order, the values of “H-IVLSLDVPIGLLQILLEQARARAAREQATTNARILARV-OH [HUMAN UROCORTIN 2]” are 0.0043 µM and more than 1 µM.
Taken in the same sequence, the figures for `CC[C@H](C)[C@H](NC(=O)[C@@H](NC(=O)[C@H](CC(=O)O)NC(=O)[C@H](CC(C)C)NC(=O)[C@H](CC(C)C)NC(=O)[C@H](CC(C)C)NC(=O)[C@H](CCCNC(=N)N)NC(=O)[C@H](CC(N)=O)NC(=O)[C@H](CC(N)=O)NC(=O)[C@H](C)NC(=O)[C@H](C)NC(=O)[C@H](CCC(N)=O)NC(=O)[C@H](CCC(N)=O)NC(=O)[C@H](CCCCN)NC(=O)[C@H](CCC(=O)O)NC(=O)[C@H](CCCCN)NC(=O)[C@H](CCC(=O)O)NC(=O)[C@H](CCC(N)=O)NC(=O)[C@H](CCCCN)NC(=O)[C@H](CCC(=O)O)NC(=O)[C@@H](NC(=O)[C@H](CCC(=O)O)NC(=O)[C@@H](NC(=O)[C@H](CCSC)NC(=O)[C@H](CCCCN)NC(=O)[C@H](CCCNC(=N)N)NC(=O)[C@H](CC(C)C)NC(=O)[C@H](CC(C)C)NC(=O)[C@H](CCC(N)=O)NC(=O)[C@H](Cc1ccc(O)cc1)NC(=O)[C@@H]1CCCN1C(=O)[C@H](CC(C)C)NC(=O)[C@H](CC(=O)O)NC(=O)[C@@H](NC(=O)[C@H](CO)NC(=O)[C@@H](NC(=O)[C@@H]1CCCN1C(=O)[C@@H]1CCCN1C(=O)CNC(=O)[C@@H]1CCC(=O)N1)[C@@H](C)CC)[C@@H](C)CC)[C@@H](C)CC)[C@@H](C)CC)[C@@H](C)O)C(=O)O` were 0.0086 µM and 0.404 µM.
Taken in the same sequence, the figures for `CC[C@H](C)[C@H](NC(=O)[C@@H](NC(=O)[C@H](CC(=O)O)NC(=O)[C@H](CC(C)C)NC(=O)[C@H](CC(C)C)NC(=O)[C@H](CC(C)C)NC(=O)[C@H](CCCNC(=N)N)NC(=O)[C@H](CC(N)=O)NC(=O)[C@H](CC(N)=O)NC(=O)[C@H](C)NC(=O)[C@H](C)NC(=O)[C@H](CCC(N)=O)NC(=O)[C@H](CCC(N)=O)NC(=O)[C@H](CCCCN)NC(=O)[C@H](CCC(=O)O)NC(=O)[C@H](CCCCN)NC(=O)[C@H](CCC(=O)O)NC(=O)[C@H](CCC(N)=O)NC(=O)[C@H](CCCCN)NC(=O)[C@H](CCC(=O)O)NC(=O)[C@@H](NC(=O)[C@H](CCC(=O)O)NC(=O)[C@@H](NC(=O)[C@H](CCSC)NC(=O)[C@H](CCCCN)NC(=O)[C@H](CCCNC(=N)N)NC(=O)[C@H](CC(C)C)NC(=O)[C@H](CC(C)C)NC(=O)[C@@H](NC(=O)[C@H](CCC(N)=O)NC(=O)[C@@H]1CCCN1C(=O)[C@H](CC(C)C)NC(=O)[C@H](CC(=O)O)NC(=O)[C@@H](NC(=O)[C@H](CO)NC(=O)[C@@H](NC(=O)[C@@H]1CCCN1C(=O)[C@@H]1CCCN1C(=O)CNC(=O)[C@@H]1CCC(=O)N1)[C@@H](C)CC)[C@@H](C)CC)[C@@H](C)CC)[C@@H](C)CC)[C@@H](C)CC)[C@@H](C)O)C(=O)O` were 0.0085 µM and 0.707 µM.
As for `CC[C@H](C)[C@H](NC(=O)[C@@H](NC(=O)[C@H](CC(=O)O)NC(=O)[C@H](CC(C)C)NC(=O)[C@H](CC(C)C)NC(=O)[C@H](CC(C)C)NC(=O)[C@H](CCCNC(=N)N)NC(=O)[C@H](CC(N)=O)NC(=O)[C@H](CC(N)=O)NC(=O)[C@H](C)NC(=O)[C@H](C)NC(=O)[C@H](CCC(N)=O)NC(=O)[C@H](CCC(N)=O)NC(=O)[C@H](CCCCN)NC(=O)[C@H](CCC(=O)O)NC(=O)[C@H](CCCCN)NC(=O)[C@H](CCC(=O)O)NC(=O)[C@H](CCC(N)=O)NC(=O)[C@H](CCCCN)NC(=O)[C@H](CCC(=O)O)NC(=O)[C@@H](NC(=O)[C@H](CCC(=O)O)NC(=O)[C@@H](NC(=O)[C@H](CCSC)NC(=O)[C@H](CCCCN)NC(=O)[C@H](CCCNC(=N)N)NC(=O)[C@H](CC(C)C)NC(=O)[C@H](CC(C)C)NC(=O)[C@H](CCC(N)=O)NC(=O)[C@H](CC(C)C)NC(=O)[C@@H]1CCCN1C(=O)[C@H](CC(C)C)NC(=O)[C@H](CC(=O)O)NC(=O)[C@@H](NC(=O)[C@H](CO)NC(=O)[C@@H](NC(=O)[C@@H]1CCCN1C(=O)[C@@H]1CCCN1C(=O)CNC(=O)[C@@H]1CCC(=O)N1)[C@@H](C)CC)[C@@H](C)CC)[C@@H](C)CC)[C@@H](C)CC)[C@@H](C)O)C(=O)O`, the half-maximal effective concentration (EC50) is 0.0065 µM in experiment [1] and 0.423 µM in experiment [2].
